Reference: patent US10597388B2, “Pyridazinone herbicides” (FMC CORPORATION, priority 2014, dated 2020)

How the values were obtained:
Assay type in all cases: in vivo
[1] = tested on: pigweed (Amaranthus retroflexus); assay: Test A greenhouse herbicide test, pre- and postemergence
How it was run: (§1)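 Visual injury ratings, 0 (no effect) to 100 (complete control), versus untreated plants after roughly 10 d in a greenhouse. Compounds, formulated in a surfactant-containing non-phytotoxic solvent, were sprayed on loam–sand soil after sowing (pre) or on one- to two-leaf plants 2–10 cm tall (post).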

kochia (Kochia scoparia) [2] = assay: as above
How it was run: as §1

corn (Zea mays) = assay: as above; details: Postemergence; for Plant response rating, Corn: 125 g ai/ha, 0 to 100 scale where 0 is no effect and 100 is complete control; for Corn plant response rating: 500 g ai/ha, 0 to 100 scale, 0 is no effect, 100 is complete control
How it was run: as §1

[3] = tested on: ragweed (common ragweed, Ambrosia elatior); assay: as above
How it was run: as §1

[4] = tested on: wheat (Triticum aestivum); assay: as above; details: Postemergence; for Plant response rating, Wheat: 125 g ai/ha, 0 to 100 scale where 0 is no effect and 100 is complete control; for Wheat plant response rating: 500 g ai/ha, 0 to 100 scale, 0 is no effect, 100 is complete control
How it was run: as §1

[5] = tested on: barnyardgrass (Echinochloa crus-galli); assay: as above
How it was run: as §1

[6] = tested on: blackgrass (Alopecurus myosuroides); assay: Test A greenhouse herbicide test, postemergence; details: for Plant response rating, Blackgrass: 125 g ai/ha, 0 to 100 scale where 0 is no effect and 100 is complete control; for Blackgrass plant response rating: 500 g ai/ha, 0 to 100 scale, 0 is no effect, 100 is complete control
How it was run: (§2)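 Seedlings in a loam soil and sand mix received formulated compound postemergence at the one- to two-leaf stage. Greenhouse holding lasts approximately 10 d, then injury is scored visually relative to untreated plants, 0 meaning no effect and 100 complete control.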

[7] = tested on: galium (catchweed bedstraw, Galium aparine); assay: Test A greenhouse herbicide test, postemergence; details: for Plant response rating, Galium: 125 g ai/ha, 0 to 100 scale where 0 is no effect and 100 is complete control; for Galium plant response rating: 500 g ai/ha, 0 to 100 scale, 0 is no effect, 100 is complete control
How it was run: as §2

kochia (Kochia scoparia) [8] = assay: Test C greenhouse herbicide test, postemergence
How it was run: (§3)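 Visual injury scores (0–100, where 100 means complete control) were assigned 13 to 15 d after postemergence application, by comparison with untreated plants. Treated seedlings stood 2 to 18 cm tall, at the 1- to 4-leaf stage.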

[9] = tested on: oat, wild (wild oat, Avena fatua); assay: Test C greenhouse herbicide test, postemergence
How it was run: as §3

[10] = tested on: oilseed rape (Brassica napus); assay: Test C greenhouse herbicide test, pre- and postemergence
How it was run: (§4)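 Visual 0–100 injury score (100 = complete control) taken against untreated controls after 13–15 d in greenhouse. Test chemicals, formulated in solvent plus surfactant, applied preemergence to seeds in loam–sand soil or postemergence to 1- to 4-leaf plants (2–18 cm).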

[11] = tested on: crabgrass, large (large crabgrass, Digitaria sanguinalis); assay: as above
How it was run: as §4

[12] = Postemergence, 125 g ai/ha, 0 to 100 scale where 0 is no effect and 100 is complete control
[13] = Postemergence, 500 g ai/ha, 0 to 100 scale, 0 is no effect, 100 is complete control
[14] = Preemergence, 125 g ai/ha, 0 to 100 scale where 0 is no effect and 100 is complete control
[15] = Preemergence, 500 g ai/ha, 0 to 100 scale where 0 is no effect and 100 is complete control
[16] = Preemergence, 500 g ai/ha, 0 to 100 scale, 0 no effect, 100 complete control
[17] = Postemergence, 31 g ai/ha, 0 to 100 scale (0 no effect, 100 complete control)
[18] = Postemergence, 125 g ai/ha, scale 0 to 100, 0 is no effect, 100 is complete control
[19] = Postemergence, 250 g ai/ha, scale 0 to 100, 0 no effect, 100 complete control, 13 to 15 d
[20] = postemergence, 62 g ai/ha, scale 0 to 100, 0 no effect, 100 complete control
[21] = Preemergence, 31 g ai/ha, scale 0 to 100, 0 is no effect, 100 is complete control
[22] = Preemergence, 62 g ai/ha, scale 0 to 100, 0 is no effect, 100 is complete control
[23] = Preemergence, 125 g ai/ha, scale 0 to 100, 0 is no effect, 100 is complete control
[24] = Preemergence, 250 g ai/ha, scale 0 to 100 (0 no effect, 100 complete control)

CCOC(=O)Oc1c(C)nn(C)c(=O)c1-c1c(C)ccc2ccccc12 [Compound 73]
95: Plant response rating, Oat, Wild [9, 18] | Plant response rating, Oat, Wild [9, 19]
20: Plant response rating, Corn (corn (Zea mays))
70: Plant response rating, Oilseed Rape [10, 18] | Oilseed Rape plant response rating [10, 20]
35: Crabgrass, Large plant response rating [11, 20]
85: Plant response rating, Oilseed Rape [10, 19] | Plant response rating, Oilseed Rape [10, 22] | Oilseed Rape plant response rating [10, 24]
90: Plant response rating, Kochia (kochia (Kochia scoparia) [2]; [12]) | Plant response rating, Ragweed [3, 12] | Ragweed plant response rating [3, 14] | Plant response rating, Ragweed [3, 15] | Wheat plant response rating [4] | Barnyardgrass plant response rating [5, 13] | Plant response rating, Blackgrass [6] | Blackgrass plant response rating [6] | Kochia plant response rating (kochia (Kochia scoparia) [8]; [17]) | Plant response rating, Kochia (kochia (Kochia scoparia) [8]; [18]) | Kochia plant response rating (kochia (Kochia scoparia) [8]; [20]) | Oat, Wild plant response rating [9, 20] | Plant response rating, Oilseed Rape [10, 21] | Plant response rating, Oilseed Rape [10, 23]
30: Crabgrass, Large plant response rating [11, 17] | Plant response rating, Crabgrass, Large [11, 22]
10: Oilseed Rape plant response rating [10, 17]
0: Plant response rating, Crabgrass, Large [11, 21]
60: Corn plant response rating (corn (Zea mays)) | Plant response rating, Crabgrass, Large [11, 18]
100: Plant response rating, Pigweed [1, 12] | Pigweed plant response rating [1, 13] | Pigweed plant response rating [1, 14] | Plant response rating, Pigweed [1, 15] | Kochia plant response rating (kochia (Kochia scoparia) [2]; [13]) | Plant response rating, Kochia (kochia (Kochia scoparia) [2]; [15]) | Ragweed plant response rating [3, 13] | Plant response rating, Barnyardgrass [5, 16] | Plant response rating, Galium [7] | Galium plant response rating [7] | Plant response rating, Kochia (kochia (Kochia scoparia) [8]; [19])
50: Kochia plant response rating (kochia (Kochia scoparia) [2]; [14])
40: Plant response rating, Wheat [4] | Plant response rating, Barnyardgrass [5, 12] | Barnyardgrass plant response rating [5, 14]
75: Oat, Wild plant response rating [9, 17] | Plant response rating, Crabgrass, Large [11, 19] | Plant response rating, Crabgrass, Large [11, 23] | Crabgrass, Large plant response rating [11, 24]

COC(=O)Oc1c(C)nn(C)c(=O)c1-c1c(C)sc2c(C)cc(C)cc12 [Compound 81]
75: Kochia plant response rating (kochia (Kochia scoparia) [8]; [20]) | Plant response rating, Crabgrass, Large [11, 22]
95: Plant response rating, Oat, Wild [9, 18] | Plant response rating, Oat, Wild [9, 19] | Oilseed Rape plant response rating [10, 24]
65: Oilseed Rape plant response rating [10, 20]
90: Plant response rating, Ragweed [3, 12] | Ragweed plant response rating [3, 14] | Barnyardgrass plant response rating [5, 13] | Barnyardgrass plant response rating [5, 14] | Plant response rating, Blackgrass [6] | Blackgrass plant response rating [6] | Oat, Wild plant response rating [9, 20] | Plant response rating, Crabgrass, Large [11, 21] | Plant response rating, Crabgrass, Large [11, 23]
5: Plant response rating, Oilseed Rape [10, 22]
55: Plant response rating, Crabgrass, Large [11, 19]
45: Plant response rating, Oilseed Rape [10, 19]
0: Plant response rating, Corn (corn (Zea mays)) | Corn plant response rating (corn (Zea mays)) | Plant response rating, Wheat [4] | Wheat plant response rating [4] | Plant response rating, Oilseed Rape [10, 21]
80: Plant response rating, Kochia (kochia (Kochia scoparia) [8]; [18]) | Plant response rating, Kochia (kochia (Kochia scoparia) [8]; [19])
35: Crabgrass, Large plant response rating [11, 20]
85: Plant response rating, Oilseed Rape [10, 18]
30: Kochia plant response rating (kochia (Kochia scoparia) [2]; [14]) | Plant response rating, Barnyardgrass [5, 12]
98: Crabgrass, Large plant response rating [11, 24]
60: Plant response rating, Kochia (kochia (Kochia scoparia) [2]; [12])
100: Plant response rating, Pigweed [1, 12] | Pigweed plant response rating [1, 13] | Pigweed plant response rating [1, 14] | Plant response rating, Pigweed [1, 15] | Kochia plant response rating (kochia (Kochia scoparia) [2]; [13]) | Plant response rating, Kochia (kochia (Kochia scoparia) [2]; [15]) | Ragweed plant response rating [3, 13] | Plant response rating, Ragweed [3, 15] | Plant response rating, Barnyardgrass [5, 16] | Plant response rating, Galium [7] | Galium plant response rating [7]
40: Plant response rating, Oilseed Rape [10, 23] | Plant response rating, Crabgrass, Large [11, 18]

CCOC(=O)Oc1c(C)nn(C)c(=O)c1-c1c(C)sc2ccc(C)cc12 [Compound 82]
100: Pigweed plant response rating [1, 14] | Plant response rating, Pigweed [1, 15]
90: Plant response rating, Kochia (kochia (Kochia scoparia) [2]; [15]) | Plant response rating, Galium [7] | Galium plant response rating [7] | Plant response rating, Kochia (kochia (Kochia scoparia) [8]; [18]) | Plant response rating, Kochia (kochia (Kochia scoparia) [8]; [19]) | Kochia plant response rating (kochia (Kochia scoparia) [8]; [20]) | Plant response rating, Oat, Wild [9, 18] | Plant response rating, Oat, Wild [9, 19]
25: Plant response rating, Crabgrass, Large [11, 21]
40: Barnyardgrass plant response rating [5, 14] | Oilseed Rape plant response rating [10, 20]
85: Oat, Wild plant response rating [9, 20] | Oilseed Rape plant response rating [10, 24]
0: Plant response rating, Corn (corn (Zea mays)) | Corn plant response rating (corn (Zea mays)) | Plant response rating, Wheat [4] | Wheat plant response rating [4] | Plant response rating, Oilseed Rape [10, 21] | Plant response rating, Oilseed Rape [10, 22] | Plant response rating, Oilseed Rape [10, 23]
60: Plant response rating, Pigweed [1, 12]
30: Plant response rating, Kochia (kochia (Kochia scoparia) [2]; [12]) | Plant response rating, Barnyardgrass [5, 12] | Plant response rating, Crabgrass, Large [11, 19]
75: Plant response rating, Oilseed Rape [10, 19]
20: Plant response rating, Crabgrass, Large [11, 18] | Plant response rating, Crabgrass, Large [11, 22] | Crabgrass, Large plant response rating [11, 20]
80: Pigweed plant response rating [1, 13] | Kochia plant response rating (kochia (Kochia scoparia) [2]; [13]) | Ragweed plant response rating [3, 14] | Plant response rating, Ragweed [3, 15] | Crabgrass, Large plant response rating [11, 24]
70: Kochia plant response rating (kochia (Kochia scoparia) [2]; [14]) | Plant response rating, Ragweed [3, 12] | Ragweed plant response rating [3, 13] | Plant response rating, Barnyardgrass [5, 15] | Plant response rating, Blackgrass [6] | Blackgrass plant response rating [6] | Plant response rating, Crabgrass, Large [11, 23]
50: Barnyardgrass plant response rating [5, 13] | Plant response rating, Oilseed Rape [10, 18]

CCOC(=O)Oc1c(C)nn(C)c(=O)c1-c1c(C)sc2c(C)cc(C)cc12 [Compound 83]
45: Plant response rating, Oilseed Rape [10, 18]
70: Plant response rating, Kochia (kochia (Kochia scoparia) [2]; [12]) | Barnyardgrass plant response rating [5, 14] | Plant response rating, Oilseed Rape [10, 19] | Plant response rating, Crabgrass, Large [11, 23]
40: Plant response rating, Barnyardgrass [5, 12] | Plant response rating, Crabgrass, Large [11, 18]
30: Kochia plant response rating (kochia (Kochia scoparia) [2]; [14])
0: Plant response rating, Corn (corn (Zea mays)) | Corn plant response rating (corn (Zea mays)) | Plant response rating, Wheat [4] | Plant response rating, Oilseed Rape [10, 21] | Plant response rating, Oilseed Rape [10, 22] | Oilseed Rape plant response rating [10, 20]
20: Wheat plant response rating [4]
65: Plant response rating, Kochia (kochia (Kochia scoparia) [8]; [18]) | Plant response rating, Crabgrass, Large [11, 22]
80: Plant response rating, Kochia (kochia (Kochia scoparia) [8]; [19])
25: Crabgrass, Large plant response rating [11, 20]
55: Plant response rating, Crabgrass, Large [11, 19]
100: Plant response rating, Pigweed [1, 12] | Pigweed plant response rating [1, 13] | Pigweed plant response rating [1, 14] | Plant response rating, Pigweed [1, 15] | Kochia plant response rating (kochia (Kochia scoparia) [2]; [13]) | Plant response rating, Kochia (kochia (Kochia scoparia) [2]; [15]) | Ragweed plant response rating [3, 13] | Plant response rating, Ragweed [3, 15] | Plant response rating, Barnyardgrass [5, 15] | Blackgrass plant response rating [6] | Plant response rating, Galium [7] | Galium plant response rating [7]
95: Plant response rating, Oat, Wild [9, 19]
75: Plant response rating, Crabgrass, Large [11, 21]
60: Kochia plant response rating (kochia (Kochia scoparia) [8]; [20])
50: Plant response rating, Oilseed Rape [10, 23] | Oilseed Rape plant response rating [10, 24]
85: Crabgrass, Large plant response rating [11, 24]
90: Plant response rating, Ragweed [3, 12] | Ragweed plant response rating [3, 14] | Barnyardgrass plant response rating [5, 13] | Plant response rating, Blackgrass [6] | Plant response rating, Oat, Wild [9, 18] | Oat, Wild plant response rating [9, 20]
